Legend:
[1] = test system: Frankliniella occidentalis; test: Greenhouse trials with water traps or yellow sticky traps; assay type: in vivo; details: 24 h, capsicum greenhouse, t-value in brackets in same cell
Description: Greenhouse trials were undertaken using water traps similar to those used in the field trials (Example 2), or yellow sticky traps (Veg-Gro Supplies Ltd, Auckland) to examine the response of thrips to volatile compounds. The greenhouse, located in Auckland, is ≈88×200 m, constructed of glass, and is used to grow capsicum (Capsicum annuum var. Special, Fiesta, Boogie and Stirit). Water traps were placed 20 to 24 m apart within a row and 24 m apart between rows. There were 6 baited water traps for each compound tested and 6 water-only traps randomly positioned in a 6×2 grid in the greenhouse. Traps were positioned just above the crop canopy. Water traps (2 L containers, 16×16×8.5 cm) were assembled as described in Example 2 and left in the greenhouse for 24 h, after which time the containers were sealed for transport to a laboratory. Insects from each water trap were transferred to 5 ml glass tubes containing 75% ethanol within 24 h of collecting them from the greenhouse. Catches from each treatment were analysed under a stereomicroscope (100×) and the proportion of Frankliniella occidentalis was determined.
Yellow sticky traps (24.4×20 cm) were treated with a compound or water using a 30 ml spray mist dripulator (Arthur Holmes, Wellington) held 10 cm away from the sticky trap. Four sprays were applied to each side, coating the sticky trap in approximately 1 ml of water or compound. Sticky traps sprayed with the same treatment were separated using black metal foldback clips (19 mm, Celco), suspended within a cardboard box (29.5×22.3×30.2 cm), which was in turn sealed within a plastic bag for transport to the greenhouse. Traps were suspended in the greenhouse just above the crop canopy within 3 h after spraying, using the same layout as for the water traps (20 to 24 m apart within a row, 24 m between rows, in a 6×2 grid). After 24 h the traps were collected by wrapping each trap in plastic wrap for transport to the laboratory. The total number of thrips on the traps were counted using 10× magnification. Thrips were removed from the sticky traps using De-Solv-it® and Johnsons baby oil®. A subsample from each treatment was further analysed under a stereomicroscope (100×) and the proportion of Frankliniella occidentalis was determined.

[2] = test system: Frankliniella occidentalis; test: Y-tube olfactometer bioassay; assay type: in vivo; details: female Frankliniella occidentalis
Description: The thrips behaviour-modifying activity of a compound may be evaluated in a glass Y-tube olfactometer following the method described by de Kogel et al. (de Kogel, W. J., Koschier, E. H. and Visser, J. H. Proc. Exper. & Appl. Entomol., N. E. V. Amsterdam, (1999) 10, 131-135.) and Koschier et al. (Koschier, E. H., De Kogel, W. J. and Visser, J. H. (2000) Jounrnal of Chemical Ecology, 26, 2643-2655).
The olfactory behaviour of thrips toward volatile compounds was evaluated in a glass Y-tube olfactometer following the method described by de Kogel et al. (de Kogel, W. J., Koschier, E. H. and Visser, J. H. Proc. Exper. & Appl. Entomol., N. E. V. Amsterdam, (1999) 10, 131-135.) and Koschler et al. (Koschier, E. H., De Kogel, W. J. and Visser, J. H. (2000) Journal of Chemical Ecology, 26, 2643-2655.). The Y-tube has two branching arms at an angle of 45° leading into a single tube, all 60 mm long, with an internal diameter of 5 mm. The arms of the Y-tube were connected to glass Wheaton Micro Kit® adapters that were in turn attached to 4 ml glass vials each containing a 1 cm^2 piece of filter paper (Whatman No. 1). The Y-tube and Wheaton apparatus were placed in a grey-box (to prevent external stimuli influencing thrips' behaviour), located in a darkened, air-conditioned room (22±3° C.). The Y-tube was placed at an inclining position of 25° between the Y-tube and horizontal plane and illuminated from above by a halogen lamp (780 lux). One microliter of the volatile compounds, either undiluted or diluted in hexane (95%, Pronalys AR), was applied to filter paper in one vial, while 1 μl of hexane was applied to filter paper held in the second vial. Air was drawn through activated charcoal before entering the Wheaton apparatus and Y-tube using a suction pump (AR Harris Co. Ltd, Christchurch) producing an airflow of 5 cm/s through each arm and 10 cm/s at the base of the Y-tube. Air was drawn through for 30 min before introducing the first thrips. Connections between the activated charcoal, Wheaton apparatus, Y-tube and suction pump consisted of silicone tubing.
An individual female Frankliniella occidentalis thrips of unknown age, that had been starved overnight, was released into the Y-tube using a small aspirator. The aspirator was made by placing a 1 ml pipette tip over the end of silicone tubing (5 mm diameter) the end of which was covered with fine mesh; the pipette tip was cut so it projected 5 mm beyond the end of the silicone tubing. A thrips was sucked up into the pipette tip, which was then placed at the base of the Y-tube. Most thrips walked up into the Y-tube within a few seconds, at which time the silicone air suction tubing was reconnected to the glass Y. The choice between clean or odour laden airflow was recorded when the thrips reached the far end of one arm and only those thrips that made the choice within 3 min were recorded. After every 5 thrips the Y-tube and Wheaton apparatus were rotated […] to avoid position effects. After 25 choices were recorded, the Y-tube and Wheaton apparatus were thoroughly cleaned with acetone (99.5%, BDH) and allowed to dry before repeating the experiment. Each compound and dilution was replicated 3 times.

Thrips obscuratus = details: Penman et al. 1982; cited from earlier work
Thrips tabaci = details: cited from earlier work
[3] = test system: Frankliniella occidentalis; details: literature; anisaldehyde with blue sticky or yellow water traps; WO 03/055309 Y-tube; cited from earlier work
Thrips hawaiiensis = details: field trials; cited from earlier work
Thrips flavus = details: cited from earlier work
Thrips coloratus = details: field trials; cited from earlier work

Structure (SMILES)	Average ratio of thrips caught relative to water treated traps ([1]; Water trap, around 66% of thrips caught were Frankliniella occidentalis)	Average ratio of thrips caught relative to water treated traps ([1]; Yellow sticky trap, about 1 ml sprayed, >95% of thrips caught were Frankliniella occidentalis)	MAC (%) = Minimum Active Concentration to elicit a response from thrips (P < 0.05) ([2]; 1 µl undiluted or diluted in hexane) [%]	% Response: percentage of thrips to walk up odour-laden arm ([2]; same cell prints a '(t value)' in brackets)	Attractancy to Thrips obscuratus (literature) (Thrips obscuratus)	Attractancy to Thrips tabaci (literature) (Thrips tabaci)	Attractancy to Frankliniella occidentalis (literature) [3]	Attractancy to Thrips hawaiiensis (literature) (Thrips hawaiiensis)	Attractancy to Thrips flavus (literature) (Thrips flavus)	Attractancy to Thrips coloratus (literature) (Thrips coloratus)
CCOC(=O)c1cccnc1 [Ethyl nicotinate, reference compound]	1 (0.1)	1.1 (0.4)	0.01	60.0 (0.043) %	potent attractant	varied in its attractiveness	less attractive	–	–	–
CCOC(=O)c1ccccc1N [ethyl anthranilate]	–	–	–	–	–	–	–	attractant	attractant	attractant
COC(=O)c1ccccc1N [methyl anthranilate]	–	–	–	–	–	not for Thrips tabaci	–	attractant	–	attractant

Source: patent US8962003B2, “Insect behaviour modifying compounds” (The New Zealand Institute for Plant and Food Research …, priority 2003, dated 2015)
